Here are results for ten compounds from ChEMBL document CHEMBL3044773, “Adulticidal activity of phthalides identified in Cnidium officinale rhizome to B- and Q-biotypes of Bemisia tabaci” (2011).

≈ marks a conversion by molar mass, not a printed value.

Holding throughout (format): functional
Assay [1] concerns Bemisia tabaci. In words: Adulticidal activity against female Bemisia tabaci biotype B (sweet potato whitefly) in cucumber leaves assessed as residual contact toxicity treated for 30 secs before adult insect infestation measured after 24 hr by leaf dip bioassay. Conditions: foliar.
The test system of assay [2] is Bemisia tabaci. Nature of the assay: Biotype susceptibility ratio, ratio of LC50 for female adult Bemisia tabaci biotype Q (sweet potato whitefly) to LC50 for female adult Bemisia tabaci biotype B.
The subject of assay [3] is Bemisia tabaci. Nature of the assay: Adulticidal activity against female Bemisia tabaci biotype Q (sweet potato whitefly) in cucumber leaves assessed as residual contact toxicity treated for 30 secs before adult insect infestation measured after 24 hr by leaf dip bioassay. Conditions: foliar.

What is called LC50 is the concentration that kills 50% of the test population.

Regarding `CCCC[C@@H]1OC(=O)c2ccccc21` [(3S)-BUTYLPHTHALIDE], the LC50 in assay [1] came out at 339 µg/mL (≈ 1780 µM); in assay [3], 338 µg/mL (≈ 1780 µM). In addition, the RatioLC50 in assay [2] is reported as 1.
The corresponding values for `C/C(=N\C#N)N(C)Cc1ccc(Cl)nc1` [ACETAMIPRID] are 11.6 µg/mL (≈ 52.1 µM), 364 µg/mL (≈ 1640 µM) and 31.4.
As to `CC1(C)C(C=C(Cl)Cl)C1C(=O)OC(C#N)c1cccc(Oc2ccccc2)c1` (stereo not drawn) [ALPHA-CYPERMETHRIN], the results for the LC50 in assay [1] and in assay [3] were 337 µg/mL (≈ 809 µM) and 482 µg/mL (≈ 1160 µM), respectively. The RatioLC50 in assay [2] stood at 1.4.
The corresponding values for `COP(=O)(OC)OC=C(Cl)Cl` [DICHLORVOS] are 182 µg/mL (≈ 825 µM), 224 µg/mL (≈ 1010 µM) and 1.2.
The corresponding values for `O=[N+]([O-])/N=C1\NCCN1Cc1ccc(Cl)nc1` [IMIDACLOPRID] are 7 µg/mL (≈ 27.4 µM), above 3000 µg/mL and above 428.6.
In the case of `CCC/C=C1\OC(=O)C2=C1CCC=C2` [LIGUSTILIDE], the LC50 turned out to be 268 µg/mL (≈ 1410 µM) in assay [1] and 254 µg/mL (≈ 1340 µM) in assay [3]. For the same compound, the RatioLC50 in assay [2] worked out at 0.9.
In the case of `CCN(CC)c1nc(C)cc(OP(=S)(OC)OC)n1` [PIRIMIPHOS METHYL], the LC50 in assay [1] came out at 188 µg/mL (≈ 616 µM); in assay [3], 235 µg/mL (≈ 770 µM). Also, the RatioLC50 in assay [2] is on record as 1.3.
For `CC(C)(C)c1ccc(CSc2cnn(C(C)(C)C)c(=O)c2Cl)cc1` [PYRIDABEN], the results for the LC50 in assay [1] and in assay [3] were 129 µg/mL (≈ 354 µM) and 211 µg/mL (≈ 578 µM), respectively. Further, the RatioLC50 in assay [2] is given as 1.6.
In the same order, the values of `CN1COCN(Cc2cnc(Cl)s2)/C1=N\[N+](=O)[O-]` [THIAMETHOXAM] are 1.7 µg/mL (≈ 5.83 µM), above 3000 µg/mL and above 1764.7.
In the same order, the values of `CCC/C=C1\OC(=O)c2ccccc21` [Z-butylidenephthalide] are 254 µg/mL (≈ 1350 µM), 586 µg/mL (≈ 3110 µM) and 2.3.
